The source of these data is PubChem BioAssay AID1259407 (Chemical Carcinogenesis Research Information System (CCRIS), 2018).

The data set has as its system CCRIS mutagenicity, Ames/micronucleus/aberration tests. The data set is described as follows: CCRIS mutagenicity studies.
The mark [1] stands for this setting: Test System: AMES SALMONELLA TYPHIMURIUM, Strain/Indicator: TA98, Metabolic Activation: NONE, Method: PREINCUBATION
Setting [2] is: Test System: AMES SALMONELLA TYPHIMURIUM, Strain/Indicator: TA98, Metabolic Activation: NONE, Method: STANDARD PLATE.
The mark [3] stands for this setting: Test System: AMES SALMONELLA TYPHIMURIUM, Strain/Indicator: TA98, Metabolic Activation: RAT, LIVER, S-9, AROCLOR 1254, Method: STANDARD PLATE.
Where [4] appears, read: Test System: AMES SALMONELLA TYPHIMURIUM, Strain/Indicator: TA100, Metabolic Activation: NONE, Method: PREINCUBATION
Where [5] appears, read: Test System: AMES SALMONELLA TYPHIMURIUM, Strain/Indicator: TA100, Metabolic Activation: NONE, Method: STANDARD PLATE.
[6] abbreviates: Test System: AMES SALMONELLA TYPHIMURIUM, Strain/Indicator: TA100, Metabolic Activation: RAT, LIVER, S-9, AROCLOR 1254, Method: STANDARD PLATE.
The mark [7] stands for this setting: Test System: AMES SALMONELLA TYPHIMURIUM, Strain/Indicator: TA1535, Metabolic Activation: NONE, Method: PREINCUBATION
Where [8] appears, read: Test System: AMES SALMONELLA TYPHIMURIUM, Strain/Indicator: TA1535, Metabolic Activation: NONE, Method: STANDARD PLATE.

Activity calls are given as the source filed them. How the calls were made is not given here.

As for `ClCCCl`, the mutagenic call (Test System: AMES SALMONELLA TYPHIMURIUM, Strain/Indicator: TA97, Metabolic Activation: HAMSTER, LIVER, S-9, AROCLOR 1254 (10%), Method: PREINCUBATION) is “inactive; negative”; the mutagenic call (Test System: AMES SALMONELLA TYPHIMURIUM, Strain/Indicator: TA97, Metabolic Activation: NONE, Method: PREINCUBATION) was “inactive; negative”; the mutagenic call (Test System: AMES SALMONELLA TYPHIMURIUM, Strain/Indicator: TA97, Metabolic Activation: NONE, Method: STANDARD PLATE) was “inactive; negative”; the mutagenic call (Test System: AMES SALMONELLA TYPHIMURIUM, Strain/Indicator: TA97, Metabolic Activation: RAT, LIVER, S-9, AROCLOR 1254 (10%), Method: PREINCUBATION) is “inactive; negative”; the mutagenic call (Test System: AMES SALMONELLA TYPHIMURIUM, Strain/Indicator: TA97, Metabolic Activation: RAT, LIVER, S-9, AROCLOR 1254, Method: STANDARD PLATE) was “active; positive”; the mutagenic call (Test System: AMES SALMONELLA TYPHIMURIUM, Strain/Indicator: TA98, Metabolic Activation: HAMSTER, LIVER, S-9, AROCLOR 1254 (10%), Method: PREINCUBATION) is “inactive; negative”. Moreover, the mutagenic call reads like this: under setting [1], “inactive; negative”; under setting [2], “inactive; negative”; (Test System: AMES SALMONELLA TYPHIMURIUM, Strain/Indicator: TA98, Metabolic Activation: RAT, LIVER, S-9, AROCLOR 1254 (10%), Method: PREINCUBATION) “inactive; negative”; under setting [3], “active; positive”; (Test System: AMES SALMONELLA TYPHIMURIUM, Strain/Indicator: TA100, Metabolic Activation: HAMSTER, LIVER, S-9, AROCLOR 1254 (10%), Method: PREINCUBATION) “inactive; negative”; under setting [4], “inactive; negative”. Moreover, the mutagenic call is “active; positive” under setting [5]; “inactive; negative” (Test System: AMES SALMONELLA TYPHIMURIUM, Strain/Indicator: TA100, Metabolic Activation: RAT, LIVER, S-9, AROCLOR 1254 (10%), Method: PREINCUBATION); “active; positive” under setting [6]; “inactive; negative” (Test System: AMES SALMONELLA TYPHIMURIUM, Strain/Indicator: TA104, Metabolic Activation: NONE, Method: STANDARD PLATE); “active; positive” (Test System: AMES SALMONELLA TYPHIMURIUM, Strain/Indicator: TA104, Metabolic Activation: RAT, LIVER, S-9, AROCLOR 1254, Method: STANDARD PLATE); “active; positive” (Test System: AMES SALMONELLA TYPHIMURIUM, Strain/Indicator: TA1530, Metabolic Activation: NONE, Method: SPOT). Besides, the mutagenic call is “active; positive” (Test System: AMES SALMONELLA TYPHIMURIUM, Strain/Indicator: TA1535, Metabolic Activation: HAMSTER, LIVER, S-9, AROCLOR 1254 (10%), Method: PREINCUBATION); “inactive; negative” under setting [7]; “active; positive” (Test System: AMES SALMONELLA TYPHIMURIUM, Strain/Indicator: TA1535, Metabolic Activation: NONE, Method: SPOT); “inactive; negative” under setting [8]; “active; positive” (Test System: AMES SALMONELLA TYPHIMURIUM, Strain/Indicator: TA1535, Metabolic Activation: RAT, LIVER, S-9, AROCLOR 1254 (10%), Method: PREINCUBATION); “active; positive” (Test System: AMES SALMONELLA TYPHIMURIUM, Strain/Indicator: TA1535, Metabolic Activation: RAT, LIVER, S-9, Method: STANDARD PLATE). Besides, the mutagenic call is “active; positive” (Test System: AMES SALMONELLA TYPHIMURIUM, Strain/Indicator: TA1535, Metabolic Activation: S-9 MIX, Method: STANDARD PLATE); “inactive; negative” (Test System: Ames Salmonella typhimurium, Strain/Indicator: TA98, Metabolic Activation: None, Method: Preincubation); “inactive; negative” (Test System: Ames Salmonella typhimurium, Strain/Indicator: TA98, Metabolic Activation: Rat, Liver, S9, Sodium phenobarbital and 5,6-benzoflavone (10%), Method: Preincubation); “inactive; negative” (Test System: Ames Salmonella typhimurium, Strain/Indicator: TA100, Metabolic Activation: None, Method: Preincubation); “inactive; negative” (Test System: Ames Salmonella typhimurium, Strain/Indicator: TA100, Metabolic Activation: Rat, Liver, S9, Sodium phenobarbital and 5,6-benzoflavone (10%), Method: Preincubation); “active; positive” (Test System: Ames Salmonella typhimurium, Strain/Indicator: TA1535, Metabolic Activation: Rat, Liver, S9, Sodium phenobarbital and 5,6-benzoflavone (10%), Method: Preincubation). Moreover, the mutagenic call is “inactive; negative” (Test System: Ames Salmonella typhimurium, Strain/Indicator: TA1537, Metabolic Activation: None, Method: Preincubation); “inactive; negative” (Test System: Ames Salmonella typhimurium, Strain/Indicator: TA1537, Metabolic Activation: Rat, Liver, S9, Sodium phenobarbital and 5,6-benzoflavone (10%), Method: Preincubation); “inactive; negative” (Test System: E. coli, Strain/Indicator: WP2uvrA/pKM101, Metabolic Activation: None, Method: Preincubation); “inactive; negative” (Test System: E. coli, Strain/Indicator: WP2uvrA/pKM101, Metabolic Activation: Rat, Liver, S9, Sodium phenobarbital and 5,6-benzoflavone (10%), Method: Preincubation).
As for `O=S(=O)(Nc1ccc(Cl)c(Cl)c1)c1cccc2cccnc12`, the mutagenic call is “inactive; negative” under setting [2]; “inactive; negative” under setting [3]; “inactive; negative” under setting [5]; “inactive; negative” under setting [6]; “inactive; negative” under setting [8]; “inactive; negative” (Test System: AMES SALMONELLA TYPHIMURIUM, Strain/Indicator: TA1535, Metabolic Activation: RAT, LIVER, S-9, AROCLOR 1254, Method: STANDARD PLATE). The mutagenic call is, setting by setting: (Test System: AMES SALMONELLA TYPHIMURIUM, Strain/Indicator: TA1537, Metabolic Activation: NONE, Method: STANDARD PLATE) “inactive; negative”; (Test System: AMES SALMONELLA TYPHIMURIUM, Strain/Indicator: TA1537, Metabolic Activation: RAT, LIVER, S-9, AROCLOR 1254, Method: STANDARD PLATE) “inactive; negative”.
With `O=S(=O)(O)c1ccc(N=Nc2c(O)c(S(=O)(=O)O)cc3cc(S(=O)(=O)O)ccc23)cc1`, the mutagenic call runs as follows: under setting [1], “inactive; negative”; (Test System: AMES SALMONELLA TYPHIMURIUM, Strain/Indicator: TA98, Metabolic Activation: RAT, LIVER, S-9, PHENOBARBITAL, Method: PREINCUBATION) “inactive; negative”; under setting [4], “inactive; negative”; (Test System: AMES SALMONELLA TYPHIMURIUM, Strain/Indicator: TA100, Metabolic Activation: RAT, LIVER, S-9, PHENOBARBITAL, Method: PREINCUBATION) “inactive; negative”.
For `CC(C)(C)c1ccc(OCC2CO2)cc1` (stereo not drawn), the mutagenic call by setting is: (Test System: AMES SALMONELLA TYPHIMURIUM, Strain/Indicator: TA98, Metabolic Activation: HAMSTER, LIVER, S-9, AROCLOR 1254 (30%), Method: PREINCUBATION) “inactive; negative”; under setting [1], “inactive; negative”; (Test System: AMES SALMONELLA TYPHIMURIUM, Strain/Indicator: TA98, Metabolic Activation: RAT, LIVER, S-9, AROCLOR 1254 (30%), Method: PREINCUBATION) “inactive; negative”; (Test System: AMES SALMONELLA TYPHIMURIUM, Strain/Indicator: TA100, Metabolic Activation: HAMSTER, LIVER, S-9, AROCLOR 1254 (30%), Method: PREINCUBATION) “inactive; negative”; under setting [4], “active; positive”; (Test System: AMES SALMONELLA TYPHIMURIUM, Strain/Indicator: TA100, Metabolic Activation: RAT, LIVER, S-9, AROCLOR 1254 (30%), Method: PREINCUBATION) “inactive; negative”. For the same compound, the mutagenic call was “inactive; negative” (Test System: AMES SALMONELLA TYPHIMURIUM, Strain/Indicator: TA1535, Metabolic Activation: HAMSTER, LIVER, S-9, AROCLOR 1254 (30%), Method: PREINCUBATION); “inactive; negative” under setting [7]; “inactive; negative” (Test System: AMES SALMONELLA TYPHIMURIUM, Strain/Indicator: TA1535, Metabolic Activation: RAT, LIVER, S-9, AROCLOR 1254 (30%), Method: PREINCUBATION); “inactive; negative” (Test System: AMES SALMONELLA TYPHIMURIUM, Strain/Indicator: TA1537, Metabolic Activation: HAMSTER, LIVER, S-9, AROCLOR 1254 (30%), Method: PREINCUBATION); “inactive; negative” (Test System: AMES SALMONELLA TYPHIMURIUM, Strain/Indicator: TA1537, Metabolic Activation: NONE, Method: PREINCUBATION); “inactive; negative” (Test System: AMES SALMONELLA TYPHIMURIUM, Strain/Indicator: TA1537, Metabolic Activation: RAT, LIVER, S-9, AROCLOR 1254 (30%), Method: PREINCUBATION).
